target: T1, CpunOBP2 (Conogethes punctiferalis, UniProt A0A0C4K8H3); experiment: competitive 1-NPN fluorescence displacement; type: binding
T1 construct: gene OBP2; pET-32a(+) in E. coli BL21(DE3); Ni-IDA purified; tags removed by enterokinase
T1 sequence (A0A0C4K8H3 23-151): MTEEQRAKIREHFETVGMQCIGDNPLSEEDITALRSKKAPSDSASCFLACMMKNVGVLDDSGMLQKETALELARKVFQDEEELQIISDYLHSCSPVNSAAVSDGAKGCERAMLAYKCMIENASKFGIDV
Text: competitive 1-NPN fluorescence displacement on CpunOBP2

IC50 [µM] | Ki [µM] | SMILES
9.55 ± 4.58 | 8.48 ± 4.06 | CCCCC/C=C/CCCCCCCCC=O [E10-16∶Ald, (E)-10-hexadecenal]
4.14 ± 2.63 | 3.68 ± 2.33 | CC/C=C\C/C=C\C/C=C\CCCCCCCCCCCCC [Z3, Z6, Z9-23∶HC, (Z3, Z6, Z9)-tricosatriene]
7.73 ± 2.82 | 6.86 ± 2.5 | CCCCC/C=C\CCCCCCCCC=O [Z10-16∶Ald, (Z)-10-hexadecenal]
